# In patent US9221809B2 (MERCK SHARP & DOHME CORP., priority 2011, dated 2015):
# Where a name gives a salt, the structure may show the parent alone.
# Biological target: IRAK4 (Homo sapiens (Human), UniProt Q9NWZ3)
# Assay: IRAK4 kinase activity, IMAP fluorescence polarization assay
# Type: biochemical
# Conditions: 100 μM ATP, 0.5 nM GST tagged IRAK4; read-out: IRAK4 IC50
# In short: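 GST-tagged IRAK4 at 0.5 nM phosphorylates 100 nM fluorescent peptide substrate with 100 μM ATP in pH 7.2 Tris buffer containing MgCl2, DTT and Tween 20, 30 min at 25 °C. Reaction stopped with IMAP binding reagent; phosphorylation read as increased fluorescence polarization.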
# Chain of IRAK4 (Q9NWZ3 whole entry): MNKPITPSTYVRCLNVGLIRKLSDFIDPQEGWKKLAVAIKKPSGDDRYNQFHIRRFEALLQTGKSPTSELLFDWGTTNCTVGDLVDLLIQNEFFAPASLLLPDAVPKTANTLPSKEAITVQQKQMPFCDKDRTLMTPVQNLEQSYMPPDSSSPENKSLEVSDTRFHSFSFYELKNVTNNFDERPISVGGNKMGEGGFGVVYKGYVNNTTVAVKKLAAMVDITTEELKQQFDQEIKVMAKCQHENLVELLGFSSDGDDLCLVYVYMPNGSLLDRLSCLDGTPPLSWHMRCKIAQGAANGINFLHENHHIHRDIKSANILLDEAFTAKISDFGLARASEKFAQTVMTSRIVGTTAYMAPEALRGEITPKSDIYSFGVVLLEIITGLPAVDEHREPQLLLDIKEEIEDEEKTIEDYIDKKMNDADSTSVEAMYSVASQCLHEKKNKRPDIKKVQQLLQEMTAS
row,IC50,Compound
1,5120 nM,"O=c1[nH]c(N[C@@H]2CCCNC2)nc(N[C@@H]2C[C@H](CO)[C@@H](O)[C@H]2O)c1-c1nc2ccccc2s1 [Example 38, 5-(Benzo[d]thiazol-2-yl)-6-(((1R,2S,3R,4R)-2,3-dihydroxy-4-(hydroxymethyl)cyclopentyl)amino)-2-((R)-piperidin-3-ylamino)pyrimidin-4(3H)-one.HCl]"
2,30 nM,"CN1CCN(c2nc(N[C@@H]3CCCNC3)c(-c3nc4c(C5CC5)nccc4s3)c(=O)[nH]2)CC1 [Example 120, (R)-5-(4-cyclopropylthiazolo[4,5-c]pyridin-2-yl)-2-(4-methylpiperazin-1-yl)-6-(piperidin-3-ylamino)pyrimidin-4(3H)-one.HCl]"
3,8.4 nM,"Cc1nccc2sc(-c3c(N[C@@H]4C[C@H](CO)[C@@H](O)[C@H]4O)nc(N4CCOCC4)[nH]c3=O)nc12 [Example 56, 6-(((1R,2S,3R,4R)-2,3-Dihydroxy-4-(hydroxymethyl)cyclopentyl)amino)-5-(4-methylthiazolo[4,5-c]pyridin-2-yl)-2-morpholinopyrimidin-4(3H)-one.HCl]"
4,2430 nM,"O=C1NCCCC[C@H]1Nc1nc(N2CCOCC2)[nH]c(=O)c1-c1nc2ccccc2s1 [Example 91, (R)-3-(5-(Benzo[d]thiazol-2-yl)-2-morpholino-6-oxo-1,6-dihydropyrimidin-4-ylamino)azepan-2-one.HCl]"

# Same assay, conditions: 100 μM ATP; read-out: IC50
row,IC50,Compound
1,2800 nM,"O=c1[nH]c(N2CCOCC2)nc(NCCN2CCCCC2)c1-c1ccc2ccccc2n1 [Example 278, 2-(morpholin-4-yl)-6-[[2-(piperidin-1-yl)ethyl]amino]-5-(quinolin-2-yl)-3,4-dihydropyrimidin-4-one]"
2,69 nM,"CC1CCN(c2nc(N[C@@H]3CCCNC3)c(-c3nc4ccccc4s3)c(=O)[nH]2)CC1 [Example 297, 5-(1,3-benzothiazol-2-yl)-2-(4-methylpiperidin-1-yl)-6-[[(3R)-piperidin-3-yl]amino]-3,4-dihydropyrimidin-4-one]"
3,23 nM,"O=c1[nH]c(N2CC[C@H](O)C2)nc(N[C@@H]2CCCNC2)c1-c1nc2ccccc2s1 [Example 306, 5-(benzo[d]thiazol-2-yl)-2-((S)-3-hydroxy-pyrrolidin-1-yl)-6-((R)-piperidin-3-ylamino)pyrimidin-4(3H)-one bis(2,2,2-trifluoro-acetate)]"
4,2500 nM,"CC1(c2ccc(Cl)cc2)CN(c2nc(N[C@@H]3CCCNC3)c(-c3nc4ccccc4s3)c(=O)[nH]2)CCO1 (stereo partly drawn) [Example 319, 5-(benzo[d]thiazol-2-yl)-2-(2-(4-chlorophenyl)-2-methylmorpholino)-6-((R)-piperidin-3-ylamino)pyrimidin-4(3H)-one hydrochloride]"
5,1600 nM,"O=c1[nH]c(N2CCOCC2)nc(NCC2CCCCN2)c1-c1nc2ccccc2s1 (centres unmarked) [Example 254, 5-(1,3-benzothiazol-2-yl)-2-(morpholin-4-yl)-6-[(piperidin-2-ylmethyl)amino]-3,4-dihydro-pyrimidin-4-one]"
6,1700 nM,"O=c1[nH]c(N2CCOCC2)nc(NCC(O)CO)c1-c1ccc2ccccc2n1 (centres unmarked) [Example 281, 6-[(2,3-dihydroxypropyl)amino]-2-(morpholin-4-yl)-5-(quinolin-2-yl)-3,4-dihydropyrimidin-4-one]"
7,2 nM,"O=c1[nH]c(N2CCOCC2)nc(NCCN2CCCCC2)c1-c1nc2ccccc2s1 [Example 257, 5-(1,3-benzothiazol-2-yl)-2-(morpholin-4-yl)-6-[[2-(piperidin-1-yl)ethyl]amino]-3,4-dihydropyrimidin-4-one]"
8,640 nM,"O=c1[nH]c(N2CCOCC2)nc(NCCNCCO)c1-c1nc2ccccc2s1 [Example 251, 5-(benzo[d]thiazol-2-yl)-6-(2-(2-hydroxyethyl-amino)ethylamino)-2-morpholino-pyrimidin-4(3H)-one]"
9,81 nM,"COCC1CN(c2nc(N[C@@H]3CCCNC3)c(-c3nc4ccccc4s3)c(=O)[nH]2)CCO1 (stereo partly drawn) [Example 286, 5-(benzo[d]thiazol-2-yl)-2-(2-(methoxymethyl)morpholino)-6-((R)-piperidin-3-ylamino)pyrimidin-4(3H)-one]"
10,7 nM,"O=c1[nH]c(N2CCOCC2)nc(N[C@@H]2CCCNC2)c1-c1csc(-c2ccccc2)n1 [Example 218, (R)-2-morpholino-5-(2-phenylthiazol-4-yl)-6-(piperidin-3-ylamino)pyrimidin-4(3H)-one]"
11,1200 nM,"O=c1[nH]c(N[C@@H]2c3ccccc3C[C@@H]2O)nc(N[C@@H]2CCCNC2)c1-c1nc2ccccc2s1 [Example 299, 5-(1,3-benzothiazol-2-yl)-2-[[(1R,2S)-2-hydroxy-2,3-dihydro-1H-inden-1-yl]amino]-6-[[(3R)-piperidin-3-yl]amino]pyrimidin-4-ol formic acid]"
12,620 nM,"O=c1[nH]c(N2CCOCC2)nc(NC2CCC(O)CC2)c1-c1nc2ccccc2s1 (centres unmarked) [Example 268, 5-(benzo[d]thiazol-2-yl)-6-(4-hydroxycyclo-hexylamino)-2-morpholinopyrimidin-4(3H)-one]"
13,8200 nM,"CC(=O)NCCNc1nc(N2CCOCC2)[nH]c(=O)c1-c1nc2ccccc2s1 [Example 261, N-(2-[[5-(1,3-benzothiazol-2-yl)-2-(morpholin-4-yl)-6-oxo-1,6-dihydropyrimidin-4-yl]amino]ethyl)acetamide]"

# Same assay, conditions: 100 μM ATP; read-out: IRAK4 IC50
row,IC50,Compound
1,22 nM,"COC1(C)CN(c2nc(N[C@@H]3CCCNC3)c(-c3ccc4ccccc4n3)c(=O)[nH]2)C1 [Example 176, (R)-2-(3-methoxy-3-methylazetidin-1-yl)-6-(piperidin-3-ylamino)-5-(quinolin-2-yl)pyrimidin-4(3H)-one]"
2,40 nM,"CO[C@H]1CN(c2nc(N[C@@H]3CCCNC3)c(-c3ccc4ccccc4n3)c(=O)[nH]2)C[C@@H]1O [Example 173, 2-((3S,4S)-3-hydroxy-4-methoxypyrrolidin-1-yl)-6-((R)-piperidin-3-ylamino)-5-(quinolin-2-yl)pyrimidin-4(3H)-one]"
3,158 nM,"CN(C)[C@H]1CCN(c2nc(N[C@@H]3CCCNC3)c(-c3ccc4ccccc4n3)c(=O)[nH]2)C1 [Example 166, 2-((S)-3-(dimethylamino)pyrrolidin-1-yl)-6-((R)-piperidin-3-ylamino)-5-(quinolin-2-yl)pyrimidin-4(3H)-one]"
4,8 nM,"O=c1[nH]c(N2CCN(c3cnccn3)CC2)nc(N[C@@H]2CCCNC2)c1-c1nc2ccccc2s1 [Example 134, (R)-5-(benzo[d]thiazol-2-yl)-6-(piperidin-3-ylamino)-2-(4-(pyrazin-2-yl)piperazin-1-yl)pyrimidin-4(3H)-one]"
5,169 nM,"O=c1[nH]c(N2CC3CC2CN3)nc(N[C@@H]2CCCNC2)c1-c1ccc2ccccc2n1 (stereo partly drawn) [Example 194, 2-(2,5-diazabicyclo[2.2.1]heptan-2-yl)-6-((R)-piperidin-3-ylamino)-5-(quinolin-2-yl)pyrimidin-4(3H)-one]"
6,13 nM,"COc1ccccc1C1CCN(c2nc(N[C@@H]3CCCNC3)c(-c3ccc4ccccc4n3)c(=O)[nH]2)CC1 [Example 189, (R)-2-(4-(2-methoxyphenyl)piperidin-1-yl)-6-(piperidin-3-ylamino)-5-(quinolin-2-yl)pyrimidin-4(3H)-one]"
7,42 nM,"CC(C)(O)C1CN(c2nc(N[C@@H]3CCCNC3)c(-c3ccc4ccccc4n3)c(=O)[nH]2)C1 [Example 172, (R)-2-(3-(2-hydroxypropan-2-yl)azetidin-1-yl)-6-(piperidin-3-ylamino)-5-(quinolin-2-yl)pyrimidin-4(3H)-one]"
8,145 nM,"CC1(C)CN(c2nc(N[C@@H]3CCCNC3)c(-c3nc4ccccc4s3)c(=O)[nH]2)CCO1 [Example 131, (R)-5-(benzo[d]thiazol-2-yl)-2-(2,2-dimethylmorpholino)-6-(piperidin-3-ylamino)pyrimidin-4(3H)-one]"
9,113 nM,"O=c1[nH]c(N2CCn3cc(C(F)(F)F)nc3C2)nc(N[C@@H]2CCCNC2)c1-c1nc2ccccc2s1 [Example 140, (R)-5-(benzo[d]thiazol-2-yl)-6-(piperidin-3-ylamino)-2-(2-(trifluoromethyl)-5,6-dihydroimidazo[1,2-a]pyrazin-7(8H)-yl)pyrimidin-4(3H)-one]"
10,8 nM,"O=c1[nH]c(N2CCN(c3ccccn3)CC2)nc(N[C@@H]2CCCNC2)c1-c1nc2ccccc2s1 [Example 132, (R)-5-(benzo[d]thiazol-2-yl)-6-(piperidin-3-ylamino)-2-(4-(pyridin-2-yl)piperazin-1-yl)pyrimidin-4(3H)-one]"
11,10 nM,"COc1ccc(N2CCN(c3nc(N[C@@H]4CCCNC4)c(-c4nc5ccccc5s4)c(=O)[nH]3)CC2)cc1 [Example 154, (R)-5-(benzo[d]thiazol-2-yl)-2-(4-(4-methoxyphenyl)piperazin-1-yl)-6-(piperidin-3-ylamino)pyrimidin-4(3H)-one]"
12,17 nM,"Cc1ccccc1C1CCN(c2nc(N[C@@H]3CCCNC3)c(-c3ccc4ccccc4n3)c(=O)[nH]2)CC1 [Example 188, (R)-6-(piperidin-3-ylamino)-5-(quinolin-2-yl)-2-(4-(o-tolyl)piperidin-1-yl)pyrimidin-4(3H)-one]"
13,851 nM,"CN1CCC2CCN(c3nc(N[C@@H]4CCCNC4)c(-c4ccc5ccccc5n4)c(=O)[nH]3)C2C1 (stereo partly drawn) [Example 185, 2-(6-methyloctahydro-1H-pyrrolo[2,3-c]pyridin-1-yl)-6-((R)-piperidin-3-ylamino)-5-(quinolin-2-yl)pyrimidin-4(3H)-one]"
14,138 nM,"Cc1nsc(C2CCN(c3nc(N[C@@H]4CCCNC4)c(-c4ccc5ccccc5n4)c(=O)[nH]3)CC2)n1 [Example 191, (R)-2-(4-(3-methyl-1,2,4-thiadiazol-5-yl)piperidin-1-yl)-6-(piperidin-3-ylamino)-5-(quinolin-2-yl)pyrimidin-4(3H)-one]"

# Same assay, conditions: unit inferred; 100 μM ATP; read-out: IRAK4 IC50
row,IC50,Compound
1,196 nM,"O=C1NC2(CCN(c3nc(N[C@@H]4C[C@H](CO)[C@@H](O)[C@H]4O)c(-c4nc5ccccc5s4)c(=O)[nH]3)CC2)CO1 [Example 81, 8-(5-(benzo[d]thiazol-2-yl)-4-((1R,2S,3R,4R)-2,3-dihydroxy-4-(hydroxymethyl)cyclopentylamino)-6-oxo-1,6-dihydropyrimidin-2-yl)-3-oxa-1,8-diazaspiro[4.5]decan-2-one]"
